{"source": "patent US9346786B2", "about": "“Pyrrolidine compounds” (Hoffmann-La Roche Inc., priority 2009, dated 2016)", "data": [{"molecular_target": "recombinant human NK3 receptor (Homo sapiens (Human), UniProt P29371)", "sequence (P29371 whole entry)": "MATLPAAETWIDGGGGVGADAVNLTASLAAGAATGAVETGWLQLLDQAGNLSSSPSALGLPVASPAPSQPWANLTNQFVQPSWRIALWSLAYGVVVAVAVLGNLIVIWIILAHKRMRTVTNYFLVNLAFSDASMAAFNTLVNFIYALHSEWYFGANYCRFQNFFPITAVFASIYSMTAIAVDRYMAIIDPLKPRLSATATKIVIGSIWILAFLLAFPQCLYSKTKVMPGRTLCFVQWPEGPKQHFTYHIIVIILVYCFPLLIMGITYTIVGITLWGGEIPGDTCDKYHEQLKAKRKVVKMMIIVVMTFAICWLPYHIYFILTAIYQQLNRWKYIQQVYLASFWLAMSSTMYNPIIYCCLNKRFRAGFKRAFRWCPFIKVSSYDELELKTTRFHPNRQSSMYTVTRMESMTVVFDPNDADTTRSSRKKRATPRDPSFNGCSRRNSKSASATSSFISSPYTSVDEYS", "assay": "biochemical", "type": "binding", "settings": "[3H]SR142801, membranes of HEK293 cells transiently expressing recombinant human NK3 receptor; read-out: Data Ki (hNK-3 receptor affinity)", "protocol": "(§1) [^3H]SR142801 Competition Binding Assay\n(§2) hNK3 receptor binding experiment were performed using [^3H]SR142801 (Catalog No. TRK1035, specific activity: 74.0 Ci/mmol, Amersham, GE Healthcare UK limited, Buckinghamshire, UK) and membrane isolated from HEK293 cells transiently expressing recombinant human NK3 receptor. After thawing, the membrane homogenates were centrifuged at 48,000×g for […] at 4° C., the pellets were resuspended in the 50 mM Tris-HCl, 4 mM MnCl2, 1 μM phosphoramidon, 0.1% BSA binding buffer at pH 7.4 to a final assay concentration of 5 μg protein/well. For inhibition experiments, membranes were incubated with [^3H]SR142801 at a concentration equal to KD value of radioligand and 10 concentrations of the inhibitory compound (0.0003-10 μM) (in a total reaction volume of 500 μl) for 75 min at room temperature (RT). At the end of the incubation, membranes were filtered onto unitfilter (96-well white microplate with bonded GF/C filter preincubated 1 h in 0.3% PEI+0.3% BSA, Packard BioScience, Meriden, Conn.) with a Filtermate 196 harvester (Packard BioScience) and washed 4 times with ice-cold 50 mM Tris-HCl, pH 7.4 buffer. Nonspecific binding was measured in the presence of 10 μM SB222200 for both radioligands. The radioactivity on the filter was counted (5 min) on a Packard Top-count microplate scintillation counter with quenching correction after addition of 45 μl of microscint 40 (Canberra Packard S.A., Zürich, Switzerland) and shaking for 1 h. Inhibition curves were fitted according to the Hill equation: y=100/(1+(x/IC50)^nH), where nH=slope factor using Excel-fit 4 software (Microsoft). IC50 values were derived from the inhibition curve and the affinity constant (Ki) values were calculated using the Cheng-Prussoff equation Ki=IC50/(1+[L]/KD) where [L] is the concentration of radioligand and KD is its dissociation constant at the receptor, derived from the saturation isotherm. All experiments were performed in duplicate and the mean±standard error (SEM) of the individual Ki values was calculated.", "units": {"Ki": "nM"}, "values": [{"molecule": "CCN(C(=O)Oc1ccc(F)cc1)[C@@H]1CN(C(=O)C2CCN(c3cnc(C#N)cn3)CC2)C[C@H]1c1ccc(Cl)c(F)c1", "note": "[Example 61, {(3S,4R)-4-(4-Chloro-3-fluoro-phenyl)-1-[1-(5-cyano-pyrazin-2-yl)-piperidine-4-carbonyl]-pyrrolidin-3-yl}-ethyl-carbamic acid 4-fluoro-phenyl ester]", "Ki": 0.8}, {"molecule": "CCN(C(=O)Oc1ccc(F)cc1)[C@@H]1CN(C(=O)C2CCN(C(=O)C3(C(F)(F)F)CC3)CC2)C[C@H]1c1ccc(Cl)cc1", "note": "[Example 95, {(3S,4R)-4-(4-Chloro-phenyl)-1-[1-(1-trifluoromethyl-cyclopropanecarbonyl)-piperidine-4-carbonyl]-pyrrolidin-3-yl}-ethyl-carbamic acid 4-fluoro-phenyl ester]", "Ki": 6.1}, {"molecule": "CC(C)N(C(=O)Oc1ccc(F)cc1)[C@@H]1CN(C(=O)C2CCN(c3cnc(C#N)cn3)CC2)C[C@H]1c1ccc(Cl)cc1", "note": "[Example 27, {(3S,4R)-4-(4-Chloro-phenyl)-1-[1-(5-cyano-pyrazin-2-yl)-piperidine-4-carbonyl]-pyrrolidin-3-yl}-isopropyl-carbamic acid 4-fluoro-phenyl ester]", "Ki": 47}, {"molecule": "CC(=O)c1ccc(N2CCC(C(=O)N3C[C@@H](N(C(=O)Oc4ccc(F)cc4)C(C)C)[C@H](c4ccc(Cl)cc4)C3)CC2)nc1", "note": "[Example 24, [(3S,4R)-1-(5′-Acetyl-3,4,5,6-tetrahydro-2H-[1,2′]bipyridinyl-4-carbonyl)-4-(4-chloro-phenyl)-pyrrolidin-3-yl]-isopropyl-carbamic acid 4-fluoro-phenyl ester]", "Ki": 62}, {"molecule": "CCN(C(=O)Oc1ccc(F)cc1)[C@@H]1CN(C(=O)C2CCN(C(=O)OC(C)(C)C)CC2)C[C@H]1c1ccc(Cl)c(F)c1", "note": "[Example 39, 4-{(3R,4S)-3-(4-Chloro-3-fluoro-phenyl)-4-[ethyl-(4-fluoro-phenoxycarbonyl)-amino]-pyrrolidine-1-carbonyl}-piperidine-1-carboxylic acid tert-butyl ester]", "Ki": 4}, {"molecule": "CCN(C(=O)Oc1ccccc1F)[C@@H]1CN(C(=O)C2CCN(C(=O)C3(C#N)CC3)CC2)C[C@H]1c1ccc(Cl)cc1", "note": "[Example 85, {(3S,4R)-4-(4-Chloro-phenyl)-1-[1-(1-cyano-cyclopropanecarbonyl)-piperidine-4-carbonyl]-pyrrolidin-3-yl}-ethyl-carbamic acid 2-fluoro-phenyl ester]", "Ki": 23.3}, {"molecule": "CCN(C(=O)Oc1ccc(F)cc1)[C@H]1CN(C(=O)C2CCN(c3ccc(C#N)nn3)CC2)C[C@@H]1c1ccc(Cl)cc1", "note": "[Example 12, {(3R,4S)-4-(4-Chloro-phenyl)-1-[1-(6-cyano-pyridazin-3-yl)-piperidine-4-carbonyl]-pyrrolidin-3-yl}-ethyl-carbamic acid 4-fluoro-phenyl ester]", "Ki": 23}, {"molecule": "CCN(C(=O)Oc1ccc(F)cc1)[C@@H]1CN(C(=O)C2CCN(C(=O)c3cnc(C(F)(F)F)cn3)CC2)C[C@H]1c1ccc(Cl)c(F)c1", "note": "[Example 78, {(3S,4R)-4-(4-Chloro-3-fluoro-phenyl)-1-[1-(5-trifluoromethyl-pyrazine-2-carbonyl)-piperidine-4-carbonyl]-pyrrolidin-3-yl}-ethyl-carbamic acid 4-fluoro-phenyl ester]", "Ki": 5}, {"molecule": "CCN(C(=O)Oc1ccc(F)cc1)[C@@H]1CN(C(=O)C2CCN(c3ccc(C(C)=O)cn3)CC2)C[C@H]1c1ccc(Cl)cc1", "note": "[Example 14, [(3S,4R)-1-(5′-Acetyl-3,4,5,6-tetrahydro-2H-[1,2′]bipyridinyl-4-carbonyl)-4-(4-chloro-phenyl)-pyrrolidin-3-yl]-ethyl-carbamic acid 4-fluoro-phenyl ester]", "Ki": 3}, {"molecule": "CCN(C(=O)Oc1ccc(F)cc1)[C@@H]1CN(C(=O)C2CCN(C(=O)C3CC3(F)F)CC2)C[C@H]1c1ccc(Cl)c(F)c1", "note": "(stereo partly drawn) [Example 70, {(3S,4R)-4-(4-Chloro-3-fluoro-phenyl)-1-[1-(2,2-difluoro-cyclopropanecarbonyl)-piperidine-4-carbonyl]-pyrrolidin-3-yl}-ethyl-carbamic acid 4-fluoro-phenyl ester]", "Ki": 4}, {"molecule": "CCN(C(=O)Oc1ccc(F)cc1)[C@@H]1CN(C(=O)C2CCN(c3ccc(C(C)=O)cn3)CC2)C[C@H]1c1ccc(F)c(Cl)c1", "note": "[Example 120, [(3S,4R)-1-(5′-Acetyl-3,4,5,6-tetrahydro-2H-[1,2′]bipyridinyl-4-carbonyl)-4-(3-chloro-4-fluoro-phenyl)-pyrrolidin-3-yl]-ethyl-carbamic acid 4-fluoro-phenyl ester]", "Ki": 1.7}, {"molecule": "CCN(C(=O)Oc1ccc(F)cc1)[C@@H]1CN(C(=O)C2CCN(c3ccc(F)cn3)CC2)C[C@H]1c1ccc(F)c(F)c1", "note": "[Example 54, [(3S,4R)-4-(3,4-Difluoro-phenyl)-1-(5′-fluoro-3,4,5,6-tetrahydro-2H-[1,2′]bipyridinyl-4-carbonyl)-pyrrolidin-3-yl]-ethyl-carbamic acid 4-fluoro-phenyl ester]", "Ki": 7}, {"molecule": "CCN(C(=O)Oc1ccc(F)cc1)[C@@H]1CN(C(=O)C2CCC(=O)N(C(C)C)C2)C[C@H]1c1ccc(Cl)c(F)c1", "note": "(stereo partly drawn) [Example 105, [(3S,4R)-4-(4-Chloro-3-fluoro-phenyl)-1-(1-isopropyl-6-oxo-piperidine-3-carbonyl)-pyrrolidin-3-yl]-ethyl-carbamic acid 4-fluoro-phenyl ester]", "Ki": 31.2}, {"molecule": "CCN(C(=O)Oc1ccc(F)cc1)[C@@H]1CN(C(=O)C2CCN(c3ccc(C#N)nn3)CC2)C[C@H]1c1ccc(Cl)cc1", "note": "[Example 18, {(3S,4R)-4-(4-Chloro-phenyl)-1-[1-(6-cyano-pyridazin-3-yl)-piperidine-4-carbonyl]-pyrrolidin-3-yl}-ethyl-carbamic acid 4-fluoro-phenyl ester]", "Ki": 2}, {"molecule": "CCN(C(=O)Oc1ccc(F)cc1)[C@@H]1CN(C(=O)C2CCN(C(=O)c3ccc(C(F)(F)F)cn3)CC2)C[C@H]1c1ccc(Cl)c(F)c1", "note": "[Example 74, {(3S,4R)-4-(4-Chloro-3-fluoro-phenyl)-1-[1-(5-trifluoromethyl-pyridine-2-carbonyl)-piperidine-4-carbonyl]-pyrrolidin-3-yl}-ethyl-carbamic acid 4-fluoro-phenyl ester]", "Ki": 12}]}, {"molecular_target": "recombinant human NK3 receptor (Homo sapiens (Human), UniProt P29371)", "assay": "biochemical", "type": "binding", "settings": "read-out: Data Ki (hNK-3 receptor affinity)", "protocol": "as §1, §2", "units": {"Ki": "nM"}, "values": [{"molecule": "CCN(C(=O)Oc1ccc(F)cc1)[C@@H]1CN(C(=O)C2CCN(C(=O)C3(C#N)CC3)CC2)C[C@H]1c1ccc(Cl)c(F)c1", "note": "[Example 72, {(3S,4R)-4-(4-Chloro-3-fluoro-phenyl)-1-[1-(1-cyano-cyclopropanecarbonyl)-piperidine-4-carbonyl]-pyrrolidin-3-yl}-ethyl-carbamic acid 4-fluoro-phenyl ester]", "Ki": 2}, {"molecule": "O=C(C1CCN(c2ccc(C(F)(F)F)cn2)CC1)N1C[C@@H](N(C(=O)Oc2ccc(F)cc2)C2CC2)[C@H](c2ccc(Cl)cc2)C1", "note": "[Example 31, [(3S,4R)-4-(4-Chloro-phenyl)-1-(5′-trifluoromethyl-3,4,5,6-tetrahydro-2H-[1,2′]bipyridinyl-4-carbonyl)-pyrrolidin-3-yl]-cyclopropyl-carbamic acid 4-fluoro-phenyl ester]", "Ki": 57}, {"molecule": "CCN(C(=O)Oc1ccc(F)cc1)[C@H]1CN(C(=O)C2CCN(c3cnc(C#N)cn3)CC2)C[C@@H]1c1ccc(Cl)cc1", "note": "[Example 11, {(3R,4S)-4-(4-Chloro-phenyl)-1-[1-(5-cyano-pyrazin-2-yl)-piperidine-4-carbonyl]-pyrrolidin-3-yl}-ethyl-carbamic acid 4-fluoro-phenyl ester]", "Ki": 36}, {"molecule": "CCN(C(=O)Oc1ccc(F)cc1)[C@H]1CN(C(=O)C2CCN(c3ccc(C(F)(F)F)cn3)CC2)C[C@@H]1c1ccc(Cl)cc1", "note": "[Example 19, [(3R,4S)-4-(4-Chloro-phenyl)-1-(5′-trifluoromethyl-3,4,5,6-tetrahydro-2H-[1,2′]bipyridinyl-4-carbonyl)-pyrrolidin-3-yl]-ethyl-carbamic acid 4-fluoro-phenyl ester]", "Ki": 88}, {"molecule": "N#Cc1cnc(N2CCC(C(=O)N3C[C@@H](N(C(=O)Oc4ccc(F)cc4)C4CC4)[C@H](c4ccc(Cl)cc4)C3)CC2)cn1", "note": "[Example 33, {(3S,4R)-4-(4-Chloro-phenyl)-1-[1-(5-cyano-pyrazin-2-yl)-piperidine-4-carbonyl]-pyrrolidin-3-yl}-cyclopropyl-carbamic acid 4-fluoro-phenyl ester]", "Ki": 48}, {"molecule": "CCN(C(=O)Oc1ccc(F)cc1)[C@@H]1CN(C(=O)C2CCN(C(=O)C3(C)CC3)CC2)C[C@H]1c1ccc(Cl)c(Cl)c1", "note": "[Example 5, {(3S,4R)-4-(3,4-Dichloro-phenyl)-1-[1-(1-methyl-cyclopropanecarbonyl)-piperidine-4-carbonyl]-pyrrolidin-3-yl}-ethyl-carbamic acid 4-fluoro-phenyl ester]", "Ki": 2}]}]}
